Reference: US9005575B2, “Arg-Gly-Asp-conjugated alpha-melanocyte stimulating hormone hybrid peptide for use in diagnosing and treating melanoma, including metastatic melanoma and methods related to same” (STC.UNM, priority 2009, dated 2015)
“And” between values parts separate entries of the source, which are not always exact repeats. Equal values may be shown once. Positions of bridges follow the written chain, without caps; N, C: chain ends. Non-standard residues stand in square brackets, D forms with d. Residues, ends and D or L forms follow the SMILES beside them.

Legend:
[1] = Stability in mouse serum monitored by RP-HPLC; assay type: in vitro ADME; conditions: 37° C., 24 h
Protocol: RGD-Lys-(Arg^11)CCMSH was radiolabeled with ^99mTc via a glucoheptonate transchelation reaction using methods described previously (7). Briefly, 100 μl of 2 mg/ml SnCl2 in 0.2 M glucoheptonate aqueous solution and 200 μl of fresh ^99mTcO4^− solution (1-4 mCi) were added into a reaction vial and incubated at room temperature (25° C.) for […] to form ^99mTc-glucoheptonate. Then, 10 μl of 1 mg/ml RGD-Lys-(Arg^11)CCMSH aqueous solution was added into the reaction vial and the pH of the reaction mixture was adjusted to 8.5 with 0.1 M NaOH. The reaction mixture was incubated at 75° C. for 40 min. […] The stability of ^99mTc-RGD-Lys-(Arg^11)CCMSH was determined by incubation in mouse serum at 37° C. according to the published procedure (27) for various time periods, and monitored for degradation by RP-HPLC.
RGD-Arg-(Arg^11)CCMSH was radiolabeled with ^99mTc via a glucoheptonate transchelation reaction using methods described previously (17). […] The stability of ^99m Tc-RGD-Arg-(Arg^11)CCMSH was determined by incubation in mouse serum at 37° C. according to the published procedure (17) for various time periods, and monitored for degradation by RP-HPLC.

[2] = test system: B16/F1 murine melanoma cells; experiment: Cellular internalization and efflux; assay type: cell-based; design: concentration or dose not given beside the values; conditions: for Activity internalized in the B16/F1 cells: 25° C.; for Cellular efflux: activity remained inside the cells: 2 h after incubating cells in culture medium
Protocol: Cellular internalization and efflux of ^99mTc-RGD-Lys-(Arg^11)CCMSH was evaluated in B16/F1 cells as previously described by Miao et al (27). After being washed once with binding media, B16/F1 cells in 24-well cell culture plates were incubated at 25° C. for 20, 40, 60, 90 and 120 min (n=4) in the presence of approximately 200,000 cpm of HPLC purified ^99mTc-RGD-Lys-(Arg^11)CCMSH. After incubation, the reaction media were aspirated and the cells were rinsed twice with 0.5 ml of ice-cold pH 7.4, 0.2% BSA/0.01 M PBS. Cellular internalization of ^99mTc-RGD-Lys-(Arg^11)CCMSH was assessed by washing the cells with acidic buffer [40 mM sodium acetate (pH 4.5) containing 0.9% NaCl and 0.2% BSA] to remove the membrane-bound radioactivity. The remaining internalized radioactivity was obtained by lysing the cells with 0.5 ml of 1 N NaOH for 5 min. Membrane-bound and internalized ^99mTc activities were counted in a gamma counter. Cellular efflux of ^99mTc-RGD-Lys-(Arg^11)CCMSH was determined by incubating B16/F1 cells with ^99mTc-RGD-Lys-(Arg^11)CCMSH for 2 h at 25° C., removing non-specific-bound radioactivity with 2×0.5 ml of ice-cold pH 7.4, 0.2% BSA/0.01 M PBS rinse, and monitoring radioactivity released into cell culture media. At time points of […], the radioactivities in media, on cell surface and in cells were separately collected and counted in a gamma counter.
Cellular internalization and efflux of ^99mTc-RGD-Arg-(Arg^11)CCMSH was evaluated in B16/F1 cells as previously described by Yang et al (17). After being washed once with binding medium, B16/F1 cells in 24-well cell culture plates were incubated at 25° C. for 20, 40, 60, 90 and 120 min (n=3) in the presence of approximately 200,000 cpm of HPLC purified 99″Tc-RGD-Arg-(Arg^11)CCMSH. After incubation, the reaction medium was aspirated and the cells were rinsed twice with 0.5 mL of ice-cold pH 7.4, 0.2% BSA/0.01 M PBS. Cellular internalization of ^99mTc-RGD-Arg-(Arg^11)CCMSH was assessed by washing the cells with acidic buffer [40 mM sodium acetate (pH 4.5) containing 0.9% NaCl and 0.2% BSA] to remove the membrane-bound radioactivity. The remaining internalized radioactivity was obtained by lysing the cells with 0.5 mL of 1 N NaOH for 5 min. Membrane-bound and internalized ^99mTc activities were counted in a gamma counter. Cellular efflux of ^99mTc-RGD-Arg-(Arg^11)CCMSH was determined by incubating B16/F1 cells with ^99mTc-RGD-Arg-(Arg^11)CCMSH for 2 h at 25° C., removing non-specific-bound radioactivity with 2×0.5 mL of ice-cold pH 7.4, 0.2% BSA/0.01 M PBS rinse, and monitoring radioactivity released into cell culture medium. At time points of 20, 40, 60, 90 and 120 min, the radioactivities on cell surface and in cells were separately collected and counted in a gamma counter.

Stability in mouse serum [1] | Structure (SMILES) | Activity internalized in the B16/F1 cells ([2]; 20 min post incubation) [%] | Cellular efflux: activity remained inside the cells [2] | Activity internalized in the B16/F1 cells ([2]; 2 h incubation) [%]
stable | CC(C)[C@H](NC(=O)[C@@H]1CCCN1C(=O)[C@H](CCCNC(=N)N)NC(=O)[C@H](CS)NC(=O)[C@H](Cc1c[nH]c2ccccc12)NC(=O)[C@H](CCCNC(=N)N)NC(=O)[C@@H](Cc1ccccc1)NC(=O)[C@H](Cc1c[nH]cn1)NC(=O)[C@H](CCC(=O)O)NC(=O)[C@H](CS)NC(=O)[C@H](CS)NC(=O)[C@H](CCCNC(=N)N)NC(=O)[C@@H]1CC(=O)N[C@@H](CCCNC(=N)N)C(=O)NCC(=O)N[C@@H](CC(=O)O)C(=O)N[C@H](Cc2ccc(O)cc2)C(=O)N1)C(N)=O [^99mTc-RGD-Arg-(Arg^11)CCMSH, metal not drawn] (RGD[dY]DRCCEH[dF]RWCRPV-NH2; lactam N-5) | 62.35±4.08 | 58.99±2.03% | 81.36±0.96
stable | CC(C)[C@H](NC(=O)[C@@H]1CCCN1C(=O)[C@H](CCCNC(=N)N)NC(=O)[C@H](CS)NC(=O)[C@H](Cc1c[nH]c2ccccc12)NC(=O)[C@H](CCCNC(=N)N)NC(=O)[C@@H](Cc1ccccc1)NC(=O)[C@H](Cc1c[nH]cn1)NC(=O)[C@H](CCC(=O)O)NC(=O)[C@H](CS)NC(=O)[C@H](CS)NC(=O)[C@H](CCCCN)NC(=O)[C@@H]1CC(=O)N[C@@H](CCCNC(=N)N)C(=O)NCC(=O)N[C@@H](CC(=O)O)C(=O)N[C@H](Cc2ccc(O)cc2)C(=O)N1)C(N)=O [^99mTc-RGD-Lys-(Arg^11)CCMSH, metal not drawn] (RGD[dY]DKCCEH[dF]RWCRPV-NH2; lactam N-5) |  | 68.57±3.77% and ~69% | 85.93±1.22
